Measured values reported in patent US20200215065A1, “COMPOSITIONS AND METHOD FOR TREATING PULMONARY HYPERTENSION” (THE REGENTS OF THE UNIVERSITY OF COLORADO, a body corporate, priority 2017, published 2020).
≈ marks a conversion by molar mass, not a printed value.

Columns and labels:
[1] = system: hypoxic pulmonary vasoconstriction (HPV) response; test: Acute hypoxic rat model: pulmonary (PAP) and systemic (MAP) arterial pressure after treatment; type: in vivo
Method: Surgical procedures and hemodynamic measurements: Rats were anesthetized by intramuscular injection with ketamine/xylazine mixture (75 and 6 mg/kg, respectively). The ventral neck was shaved and a 2 cm incision was made in the right ventral neck where the jugular vein and right carotid artery were isolated via blunt dissection. A polyethylene (PE-50) catheter was introduced into the right carotid to measure systemic blood pressure. A polyvinyl (PV-1) catheter was inserted into the jugular vein and threaded through the right atrium, right ventricle, and into the lumen of the main pulmonary artery to obtain pulmonary arterial pressure. Fluid filled catheters were connected to pressure transducers and monitored continuously with the MP150 data acquisition system (BioPAC Systems; Goleta, Calif.). Blood pressures were recorded every two minutes for data analysis.
After completion of catheter placements and instrumentation for hemodynamic measurements, a 1 cm incision was made above the trachea, and the trachea was isolated by blunt dissection. A tracheotomy was performed approximately 4 mm above the carina and an endotracheal tube specially designed for rats was inserted such that the end of the tube was placed roughly 2 mm distal from the carina. This placement allowed the tip of a Microsprayer® attached to the FMJ-250 syringe (Penn-Century; Philadelphia, Pa.) to protrude approximately 1 mm from the trachea tube and deliver aerosolized emulsion to both right and left lung periphery (FIG. 1A).
Testing efficacy of intrapulmonary delivery of ambrisentan: following instrumentation and tracheotomy, anesthetized rats were placed in a specially designed Plexiglas box built to accommodate exteriorized catheters for completion of the study protocol (depicted graphically in FIG. 1B). Baseline PAP and mean systemic arterial pressure (MAP) were recorded. Next, rats were switched from breathing room air to a hypoxic gas mixture for 10 minutes. Acute hypoxia was induced in rats by exposure to 13% O2 (room air/nitrogen dilution; FIG. 1A). […] This first hypoxic challenge was followed by 20 minutes of room air breathing. […] During this period of room air breathing, rats were allowed to recover from hypoxia for 10 minutes prior to treatment administration via the Microsprayera Treatments were delivered as a 100-microliter bolus aerosol immediately following emulsification to avoid potential phase separation. Following treatment, rats remained breathing room air for an additional 10 minutes to allow drug absorption before being exposed to a second 10-minute hypoxic challenge. Following the second hypoxic challenge, rats returned to breathing room air and blood pressures were monitored for 15 minutes before animals were euthanized with intravenous injection of a euthanasia agent.
Intravenous infusion: As a reference to aid in understanding the response of intrapulmonary delivery of ambrisentan, an additional treatment group for intravenous (IV) infusion of ambrisentan was also investigated (5 mg/kg; 0.5 mL saline). […]
This study was conducted to test the use and efficacy of a water-in-fluorocarbon emulsion of this disclosure to encapsulate ambrisentan or sodium nitrite for intrapulmonary drug delivery. An acute hypoxic rat model was used, and pulmonary and systemic arterial pressure were recorded to determine efficacy of the drug delivery system for treatment of the acute hypoxic pulmonary vasoconstrictive response. […]

[2] = Solubility of ambrisentan in PBS; type: physicochemical; conditions: pH 7.8, aqueous buffer, pH raised to 7.8
Excerpt: The aqueous solution of ambrisentan was then mixed with Krytox and PFOB and emulsified as previously described.

Row | SMILES | pulmonary arterial pressure compared to the empty emulsion ([1]; acute hypoxia, intrapulmonary emulsion, 0.1 mg/kg) | adverse effects (systemic arterial pressure during acute hypoxia) ([1]; intrapulmonary emulsion) | mean pulmonary arterial pressure when exposed to acute hypoxia ([1]; intrapulmonary emulsion, high dose 0.5 mg/kg) | solubility [2] [mg/mL] | MAP during the second hypoxic challenge ([1]; in vivo) | adverse effects (systemic arterial pressure during acute hypoxia) ([1]; in vivo)
1 | O=NO [sodium nitrite] | did not significantly change | no adverse effects were observed | significantly reduced | – | – | –
2 | COC(c1ccccc1)(c1ccccc1)[C@H](Oc1nc(C)cc(C)n1)C(=O)O [ambrisentan] | – | – | – | ~100 (≈ 264 mM) | did not further reduce | no adverse effects were observed
